Target: SARS-CoV-2 PL^pro (Severe acute respiratory syndrome coronavirus 2, UniProt P0DTD1)
Format: biochemical

Structure (SMILES) | dose-dependent inhibition of PL^pro, compared with ACF
CN(C)c1ccc2cc3ccc(N(C)C)cc3nc2c1 [acridine orange base] | less active than the parent compound
Nc1ccc2cc3ccc(N)cc3nc2c1.O=S(=O)(O)O [acridine-3,6-diamine sulfate] | less active than the parent compound
